Experimental findings from PubChem BioAssay (NCI) are described below.

Test systems include 786-0 renal; HCT-116 colon; CAKI-1 renal; KM12 colon; UACC-257 melanoma; SR leukemia; SF-268 CNS; HOP-62 NSCLC.
Assay in all cases: inhibition of tumour cell growth, NCI panel, 48 h

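In this assay, cells in 96-well plates receive the compound at five concentrations for 48 hours. Endpoints are linearly interpolated between the surrounding concentrations. The concentration for 50% growth inhibition is given as GI50. The concentration for full growth arrest is given as TGI.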 Where only a bound is given, the exact number is not on record here.

On to `NC(=S)N/N=C/C(O[C@@H](/C=N/NC(N)=S)CO)n1cnc2c(N)ncnc21` (stereo not given in full), for which the TGI with 786-0 renal was > 100 µM; in the assay on HCT-116 colon, > 61.9 µM; in the assay on CAKI-1 renal it was > 100 µM; with KM12 colon, > 100 µM; in the assay with UACC-257 melanoma, > 100 µM; with SR leukemia, > 100 µM. Also, the TGI in the assay on SF-268 CNS and with HOP-62 NSCLC was > 100 µM in each case.

Regarding `COc1ccc(C(=O)C(c2ccc(OC)cc2)C2(O)C(=O)Nc3c(Cl)cc(Cl)cc32)cc1` (stereo not given), the TGI in the assay with 786-0 renal was 29 µM; in the assay with CAKI-1 renal, 49.6 µM; in the assay on KM12 colon it was 36.9 µM; in the assay on UACC-257 melanoma it was 31.7 µM; in the assay with SF-268 CNS it was > 100 µM; with HOP-62 NSCLC it was 54.4 µM.

As for `O=C(CC(=O)N1N=C(n2ccc3ccccc32)CC1c1ccccc1)Nc1ccccc1Cl` (stereo not given), the TGI in the assay with 786-0 renal, in the assay with HCT-116 colon, in the assay on KM12 colon, in the assay with UACC-257 melanoma, with SF-268 CNS and in the assay with HOP-62 NSCLC was > 100 µM each time.

With `C=C1C2CCCC1C1(S(C)(=O)=O)CCCCC21O` (stereo not given), the TGI with 786-0 renal, in the assay on HCT-116 colon, in the assay on CAKI-1 renal, with KM12 colon, with UACC-257 melanoma and with SR leukemia was > 100 µM in each case.

As to `CCP(C)(=O)CC`, the TGI in the assay on 786-0 renal, with HCT-116 colon, in the assay with CAKI-1 renal, in the assay with KM12 colon, with UACC-257 melanoma and with SR leukemia was > 100 µM each time. For the same compound, the TGI with SF-268 CNS and in the assay on HOP-62 NSCLC was > 100 µM throughout.

For `[CH3][Ge]([CH3])([CH2]CC#N)[S]c1ccccc1`, the GI50 with 786-0 renal was 17.1 µM; in the assay on CAKI-1 renal, 21.3 µM; in the assay with KM12 colon it was 14.6 µM; with UACC-257 melanoma, 22.7 µM; in the assay with SF-268 CNS, 18.6 µM; in the assay with HOP-62 NSCLC, 14.6 µM. The TGI in the assay on 786-0 renal was 32.8 µM; with CAKI-1 renal, 43.7 µM; in the assay on KM12 colon it was 33.5 µM; in the assay on UACC-257 melanoma, 70.7 µM; in the assay with SF-268 CNS it was 51.6 µM; with HOP-62 NSCLC, 38.1 µM.

Turning to `COc1c(CC(C)=O)c2ccccc2n1C(C)=O`, the TGI with 786-0 renal, with HCT-116 colon, in the assay on CAKI-1 renal, in the assay on KM12 colon, with UACC-257 melanoma and in the assay on SR leukemia was > 100 µM in each case. Besides, the TGI with HOP-62 NSCLC was > 100 µM.

As for `Nc1nc2c(ncn2C2OC(CO)C(O)C2O)c(=O)o1` (stereo not given), the TGI with 786-0 renal, in the assay on HCT-116 colon, in the assay on CAKI-1 renal, in the assay with KM12 colon, in the assay with UACC-257 melanoma and in the assay on SR leukemia was > 100 µM each time. Moreover, the TGI in the assay with SF-268 CNS and with HOP-62 NSCLC was > 100 µM in each case.

Consider `c1ccc(-c2sc(-c3ccccc3)c3c2C(c2ccccc2)c2c(-c4ccccc4)sc(-c4ccccc4)c2C3c2ccccc2)cc1` (stereo not given), for which the TGI in the assay on 786-0 renal, in the assay with HCT-116 colon, with CAKI-1 renal, in the assay with KM12 colon, with UACC-257 melanoma and with SR leukemia was > 100 µM in each case. Also, the TGI in the assay with SF-268 CNS and in the assay on HOP-62 NSCLC was > 100 µM throughout.

For `O=C1CCC2(c3ccccc3)OCC([C@@H](O)c3ccccc3)N12` (stereo not given in full), the TGI in the assay with 786-0 renal, in the assay on HCT-116 colon, with CAKI-1 renal, with KM12 colon, in the assay with UACC-257 melanoma and with SR leukemia was > 100 µM in each case. Also, the TGI with SF-268 CNS and with HOP-62 NSCLC was > 100 µM in each case.

For the compound `O=C(Nc1ccc(Nc2ccc(NC(=O)c3ccccc3)c3c2C(=O)c2ccccc2C3=O)c2c1C(=O)c1ccccc1C2=O)c1ccccc1`, the TGI in the assay on 786-0 renal, in the assay on HCT-116 colon, in the assay on CAKI-1 renal, with KM12 colon, in the assay with UACC-257 melanoma and in the assay on SR leukemia was > 100 µM each time. For the same compound, the TGI with SF-268 CNS and with HOP-62 NSCLC was > 100 µM each time.

Turning to `Cc1cc(C)c([O-])c(-[n+]2c(-c3ccccc3)cc(-c3ccccc3)cc2-c2ccccc2)c1`, the TGI in the assay with 786-0 renal was determined as 19.7 µM; in the assay with HCT-116 colon, 10.9 µM; in the assay with CAKI-1 renal, 22.1 µM; in the assay on KM12 colon, 13.1 µM; with UACC-257 melanoma, 10.1 µM; in the assay with SR leukemia, 11.8 µM. In addition, the values for the TGI with SF-268 CNS and with HOP-62 NSCLC were 21.5 µM and 22.8 µM, respectively.

With `Oc1ccc(I)c2cccnc12`, the TGI in the assay with 786-0 renal is > 100 µM; in the assay on HCT-116 colon, > 100 µM; in the assay with KM12 colon, > 100 µM; in the assay on UACC-257 melanoma, 73.8 µM; with SR leukemia, 14.8 µM; in the assay on SF-268 CNS it was 72.1 µM. Also, in the assay on HOP-62 NSCLC, the TGI was > 100 µM.

Turning to `O=c1[nH]c(-c2ccccc2)nc2cc([N+](=O)[O-])c(/C(Cl)=C/c3ccccc3)cc12`, the TGI in the assay on 786-0 renal was > 100 µM; with HCT-116 colon, > 100 µM; in the assay with CAKI-1 renal it was > 100 µM; in the assay with KM12 colon, > 100 µM; with UACC-257 melanoma, 48.3 µM; in the assay with SR leukemia, > 100 µM. In addition, in the assay on SF-268 CNS, the TGI is > 100 µM.

Turning to `Cc1c(C(=O)/C=C/c2ccc([N+](=O)[O-])cc2)[n+](=O)c2ccccc2n1[O-]`, the TGI in the assay with 786-0 renal, with HCT-116 colon, in the assay with CAKI-1 renal, in the assay on KM12 colon, in the assay with UACC-257 melanoma and with SR leukemia was > 100 µM throughout. For the same compound, the TGI with SF-268 CNS and in the assay on HOP-62 NSCLC was > 100 µM in each case.

As for `NC(N)=NCCCC(Nc1c2ccccc2nc2ccccc12)C(=O)O` (stereo not given), the TGI in the assay with 786-0 renal, with HCT-116 colon, in the assay with CAKI-1 renal, in the assay with KM12 colon, with UACC-257 melanoma and in the assay on SR leukemia was > 100 µM each time. For the same compound, in the assay on SF-268 CNS, the TGI was > 100 µM.

On to `COC1(OC)CCC2(C)OC(c3ccccc3)C1O2` (stereo not given), for which the TGI in the assay on 786-0 renal, with HCT-116 colon, with CAKI-1 renal, with KM12 colon, in the assay on UACC-257 melanoma and with SR leukemia was > 100 µM in each case. The TGI with SF-268 CNS and in the assay on HOP-62 NSCLC was > 100 µM in each case.

With `CS(=O)(=O)ON1C(=O)c2ccc(N)cc2C1=O`, the TGI in the assay on 786-0 renal is > 100 µM; in the assay with HCT-116 colon it was > 100 µM; in the assay with KM12 colon, > 100 µM; in the assay with UACC-257 melanoma it was > 31.6 µM; in the assay on SR leukemia it was > 68.8 µM; in the assay on SF-268 CNS it was > 95.7 µM. Further, the TGI with HOP-62 NSCLC was > 100 µM.

Regarding `CC(=O)[CH-]C(=O)c1ccccc1.CC(=O)[CH-]C(=O)c1ccccc1.CC(=O)[CH-]C(=O)c1ccccc1.[Cl-].[Hf+4]`, the GI50 was 25.7 µM in the assay with 786-0 renal; 20.1 µM in the assay with CAKI-1 renal; 36.1 µM in the assay on KM12 colon; 19.9 µM with UACC-257 melanoma; 23.7 µM in the assay on SF-268 CNS; 51.2 µM with HOP-62 NSCLC. For the same compound, the TGI in the assay with 786-0 renal is > 100 µM; in the assay with CAKI-1 renal, 62.6 µM; with KM12 colon it was > 100 µM; in the assay on UACC-257 melanoma it was 75.3 µM; in the assay on SF-268 CNS it was > 100 µM; in the assay on HOP-62 NSCLC it was > 100 µM.

For the compound `C/C(=C\CNc1ncnc2c1ncn2C1CCCCO1)COP(=O)(O)O` (stereo not given), the TGI in the assay with 786-0 renal, in the assay with HCT-116 colon, in the assay on CAKI-1 renal, with KM12 colon, in the assay with UACC-257 melanoma and with SR leukemia was > 100 µM in each case. The TGI in the assay on SF-268 CNS and in the assay with HOP-62 NSCLC was > 100 µM throughout.

Take `COC12OCCN(C)C1=CC(=O)C1N=NCC12` (stereo not given): the TGI in the assay with 786-0 renal, in the assay with HCT-116 colon, in the assay with CAKI-1 renal, with KM12 colon and with UACC-257 melanoma was > 100 µM throughout.

Take `COC(=O)C1=C(C)N(NC(N)=O)C2(N)N(NC(N)=O)C(C)=C(C(=O)OC)C12C#N` (stereo not given): the TGI in the assay with 786-0 renal, in the assay with HCT-116 colon, in the assay with CAKI-1 renal, in the assay on KM12 colon, in the assay with UACC-257 melanoma and in the assay on SF-268 CNS was > 100 µM in each case. Besides, in the assay on HOP-62 NSCLC, the TGI is > 100 µM.

As for `CC(C)(C)c1cc(Cc2ccc(S(C)(=O)=O)cc2)c(O)c(C(C)(C)C)c1`, the TGI in the assay with 786-0 renal worked out at 29.6 µM; with HCT-116 colon it was 27 µM; in the assay on CAKI-1 renal it was 29.8 µM; in the assay with KM12 colon it was 30.4 µM; with UACC-257 melanoma it was 31 µM; in the assay on SR leukemia, 29.5 µM. The values for the TGI in the assay on SF-268 CNS and with HOP-62 NSCLC were 25.9 µM and 29.8 µM, respectively.

As for `CN(C)CC1CCCC/C1=N\OC(=O)c1ccccc1` (stereo not given), the TGI in the assay with 786-0 renal, in the assay with HCT-116 colon, in the assay on CAKI-1 renal, in the assay with KM12 colon, in the assay on UACC-257 melanoma and with SR leukemia was > 100 µM throughout. For the same compound, the TGI in the assay with SF-268 CNS and in the assay with HOP-62 NSCLC was > 100 µM each time.
